Drawing on the supplement of paper PMC10307832, this text covers relative viability for two cell lines.

Compound in the assay “XMD14-99 + Navitoclax”: CN1CCN(CC1)C2=CC(=C(C=C2)NC3=NC(=C(S3)C(=O)C4=C(C=CC=C4Cl)Cl)N)OC [XMD14-99] + CC1(C)CCC(c2ccc(Cl)cc2)=C(CN2CCN(c3ccc(C(=O)NS(=O)(=O)c4ccc(N[C@H](CCN5CCOCC5)CSc5ccccc5)c(S(=O)(=O)C(F)(F)F)c4)cc3)CC2)C1 [Navitoclax] (partner 0.5 µM)
Description: relative viability (nuclei count vs DMSO), 5 days (fraction); higher = more cells survive. The essentials:
(§1)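 After 5 days of treatment, lung cancer cells in 1536-well plates were fixed and stained in a single step (final 0.05% Triton X-100, 1% formaldehyde, 1 ug/ml Hoechst) and their nuclei counted on 4× images. Treatment had been applied by pin tool the day after seeding as one drug alone or as a fixed anchor-drug dose with five library-drug doses (not always all listed) in √10 steps. Relative viability is the nuclei count of treated wells divided by that of vehicle wells, and values are medians of duplicate plates.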

Compound in the assay “AZD1208 + Foretinib”: N[C@@H]1CCCN(c2c(/C=C3\SC(=O)NC3=O)cccc2-c2ccccc2)C1 [AZD1208] + COc1cc2c(Oc3ccc(NC(=O)C4(C(=O)Nc5ccc(F)cc5)CC4)cc3F)ccnc2cc1OCCCN1CCOCC1 [Foretinib] (partner 0.25 µM)
The description is as above. The essentials:
as §1

As for CAL-12T, the relative viability was determined as 1.28 with XMD14-99 + Navitoclax (first compound 0.08 µM); 1.14 with XMD14-99 + Navitoclax (first compound 0.8 µM); 1.21 with XMD14-99 + Navitoclax (first compound 2.53 µM); 1.16 with XMD14-99 + Navitoclax (first compound 8 µM); 1.1 with AZD1208 + Foretinib (first compound 0.08 µM); 1.28 with AZD1208 + Foretinib (first compound 0.253 µM). Also, the results for the relative viability in the assay with AZD1208 + Foretinib (first compound 0.8 µM), with AZD1208 + Foretinib (first compound 2.53 µM) and in the assay with AZD1208 + Foretinib (first compound 8 µM) were 1.04, 1.35 and 1.38, respectively.
For the cell line EBC-1, the relative viability with XMD14-99 + Navitoclax (first compound 0.08 µM) came out at 0.37; in the assay with XMD14-99 + Navitoclax (first compound 0.8 µM) it was 0.384; in the assay with XMD14-99 + Navitoclax (first compound 2.53 µM), 0.415; with XMD14-99 + Navitoclax (first compound 8 µM), 0.219; in the assay with AZD1208 + Foretinib (first compound 0.08 µM) it was 0.0932; with AZD1208 + Foretinib (first compound 0.253 µM), 0.0985. In addition, the relative viability is 0.0803 with AZD1208 + Foretinib (first compound 0.8 µM), 0.0927 with AZD1208 + Foretinib (first compound 2.53 µM) and 0.103 with AZD1208 + Foretinib (first compound 8 µM).
